Experimental data taken from US8865623B2, “Herbicidally active cyclic diones and derivatives thereof, processes for their preparation, compositions, and method of controlling weeds” (Syngenta Limited, priority 2009, dated 2014).

Legend:
Format in all cases: in vivo
Lolium perenne (LOLPE) [1] = assay: Post-emergence herbicidal activity, glasshouse pot test; conditions: Lolium perenne, 312 h, rate 250 g/ha, evaluated after 13 days, read-out: Post-emergence activity LOLPE (100=total damage to plant; 0=no damage to plant)
Summary of the method: (§1)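 Pot-grown plants in standard soil received a spray one day post-sowing (pre-emergence) or after eight days' growth (post-emergence). Scoring took place 13 days later on a 0–100 scale, 100 meaning total damage.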

[2] = tested on: Alopecurus myosuroides (ALOMY); assay: as above; conditions: Alopecurus myosuroides, 312 h, rate 250 g/ha, evaluated after 13 days, read-out: Post-emergence activity ALOMY (100=total damage to plant; 0=no damage to plant)
Summary of the method: as §1

[3] = tested on: Echinochloa crus-galli (ECHCG); assay: as above; conditions: Echinochloa crus-galli, 312 h, rate 250 g/ha, evaluated after 13 days, read-out: Post-emergence activity ECHCG (100=total damage to plant; 0=no damage to plant)
Summary of the method: as §1

Avena fatua (AVEFA) [4] = assay: as above; conditions: Avena fatua, 312 h, rate 250 g/ha, evaluated after 13 days, read-out: Post-emergence activity AVEFA (100=total damage to plant; 0=no damage to plant)
Summary of the method: as §1

Lolium perenne (LOLPE) [5] = assay: Pre-emergence herbicidal activity, glasshouse pot test; conditions: Lolium perenne, 312 h, Rate 250 g/ha, evaluated after 13 days, read-out: Pre-emergence activity LOLPE (100=total damage to plant; 0=no damage to plant)
Summary of the method: as §1

[6] = tested on: Alopecurus myosuroides (ALOMY); assay: as above; conditions: Alopecurus myosuroides, 312 h, Rate 250 g/ha, evaluated after 13 days, read-out: Pre-emergence activity ALOMY (100=total damage to plant; 0=no damage to plant)
Summary of the method: as §1

[7] = tested on: Echinochloa crus-galli (ECHCG); assay: as above; conditions: Echinochloa crus-galli, 312 h, Rate 250 g/ha, evaluated after 13 days, read-out: Pre-emergence activity ECHCG (100=total damage to plant; 0=no damage to plant)
Summary of the method: as §1

Avena fatua (AVEFA) [8] = assay: as above; conditions: Avena fatua, 312 h, Rate 250 g/ha, evaluated after 13 days, read-out: Pre-emergence activity AVEFA (100=total damage to plant; 0=no damage to plant)
Summary of the method: as §1

SMILES: CC1(C)OC(C)(C)C(O)=C(c2cc(Oc3nc4ccc(Cl)cc4s3)ccc2C2CC2)C1=O [Example A-366]
- pest or weed control at 250 g/ha (Lolium perenne (LOLPE) [1]): 100%
- pest or weed control at 250 g/ha [2]: 100%
- pest or weed control at 250 g/ha [3]: 100%
- pest or weed control at 250 g/ha (Avena fatua (AVEFA) [4]): 80%
- pest or weed control at 250 g/ha (Lolium perenne (LOLPE) [5]; pre-emergence): 90%
- pest or weed control at 250 g/ha ([6]; pre-emergence): 50%
- pest or weed control at 250 g/ha ([7]; pre-emergence): 90%
- pest or weed control at 250 g/ha (Avena fatua (AVEFA) [8]; pre-emergence): 30%

SMILES: CCc1ccc(Oc2ccc(C(F)(F)F)cc2Cl)cc1C1=C(O)[C@@H]2CC[C@](C)(C1=O)C2(C)C [Example A-314]
- pest or weed control at 250 g/ha (Lolium perenne (LOLPE) [1]; glasshouse): 70%
- pest or weed control at 250 g/ha ([2]; glasshouse): 40%
- pest or weed control at 250 g/ha ([3]; glasshouse): 100%
- pest or weed control at 250 g/ha (Avena fatua (AVEFA) [4]; glasshouse): 70%
- pest or weed control at 250 g/ha (Lolium perenne (LOLPE) [5]; pre-emergence spray): 100%
- pest or weed control at 250 g/ha ([6]; pre-emergence spray): 30%
- pest or weed control at 250 g/ha ([7]; pre-emergence spray): 100%
- pest or weed control at 250 g/ha (Avena fatua (AVEFA) [8]; pre-emergence spray): 20%

SMILES: CCc1ccc(Oc2ccc(Cl)cn2)cc1C1=C(O)CC(C)(C)CC1=O [Example A-301]
- pest or weed control at 250 g/ha (Lolium perenne (LOLPE) [1]; glasshouse): 90%
- pest or weed control at 250 g/ha ([2]; glasshouse): 100%
- pest or weed control at 250 g/ha ([3]; glasshouse): 100%
- pest or weed control at 250 g/ha (Avena fatua (AVEFA) [4]; glasshouse): 60%
- pest or weed control at 250 g/ha (Lolium perenne (LOLPE) [5]; pre-emergence spray): 100%
- pest or weed control at 250 g/ha ([6]; pre-emergence spray): 70%
- pest or weed control at 250 g/ha ([7]; pre-emergence spray): 100%
- pest or weed control at 250 g/ha (Avena fatua (AVEFA) [8]; pre-emergence spray): 60%

SMILES: CCc1ccc(Oc2ccc3cc(Cl)ccc3n2)cc1C1=C(O)CC(C)(C)CC1=O [Example A-261]
- pest or weed control at 250 g/ha (Lolium perenne (LOLPE) [1]; glasshouse): 100%
- pest or weed control at 250 g/ha ([2]; glasshouse): 90%
- pest or weed control at 250 g/ha ([3]; glasshouse): 100%
- pest or weed control at 250 g/ha (Avena fatua (AVEFA) [4]; glasshouse): 100%
- pest or weed control at 250 g/ha (Lolium perenne (LOLPE) [5]; pre-emergence spray): 80%
- pest or weed control at 250 g/ha ([6]; pre-emergence spray): 80%
- pest or weed control at 250 g/ha ([7]; pre-emergence spray): 90%
- pest or weed control at 250 g/ha (Avena fatua (AVEFA) [8]; pre-emergence spray): 50%

SMILES: CCc1ccc(Oc2ncc(Br)cn2)cc1C1=C(O)CC(C)(C)CC1=O [Example A-297]
- pest or weed control at 250 g/ha (Lolium perenne (LOLPE) [1]; glasshouse): 100%
- pest or weed control at 250 g/ha ([2]; glasshouse): 100%
- pest or weed control at 250 g/ha ([3]; glasshouse): 100%
- pest or weed control at 250 g/ha (Avena fatua (AVEFA) [4]; glasshouse): 100%
- pest or weed control at 250 g/ha (Lolium perenne (LOLPE) [5]; pre-emergence spray): 100%
- pest or weed control at 250 g/ha ([6]; pre-emergence spray): 70%
- pest or weed control at 250 g/ha ([7]; pre-emergence spray): 100%
- pest or weed control at 250 g/ha (Avena fatua (AVEFA) [8]; pre-emergence spray): 50%

SMILES: CCc1ccc(Oc2ncc(Cl)cc2Cl)cc1C1=C(O)CC(C)(C)CC1=O [Example A-84]
- pest or weed control at 250 g/ha (Lolium perenne (LOLPE) [1]; glasshouse): 90%
- pest or weed control at 250 g/ha ([2]; glasshouse): 100%
- pest or weed control at 250 g/ha ([3]; glasshouse): 100%
- pest or weed control at 250 g/ha (Avena fatua (AVEFA) [4]; glasshouse): 50%
- pest or weed control at 250 g/ha (Lolium perenne (LOLPE) [5]; pre-emergence spray): 100%
- pest or weed control at 250 g/ha ([6]; pre-emergence spray): 70%
- pest or weed control at 250 g/ha ([7]; pre-emergence spray): 100%
- pest or weed control at 250 g/ha (Avena fatua (AVEFA) [8]; pre-emergence spray): 60%

SMILES: CCc1ccc(Oc2ccc([N+](=O)[O-])cc2Cl)cc1C1=C(O)C(C)(C)OC(C)(C)C1=O [Example A-201]
- pest or weed control at 250 g/ha (Lolium perenne (LOLPE) [1]; glasshouse): 70%
- pest or weed control at 250 g/ha ([2]; glasshouse): 60%
- pest or weed control at 250 g/ha ([3]; glasshouse): 100%
- pest or weed control at 250 g/ha (Avena fatua (AVEFA) [4]; glasshouse): 60%
- pest or weed control at 250 g/ha (Lolium perenne (LOLPE) [5]; pre-emergence spray): 30%
- pest or weed control at 250 g/ha ([6]; pre-emergence spray): 10%
- pest or weed control at 250 g/ha ([7]; pre-emergence spray): 60%
- pest or weed control at 250 g/ha (Avena fatua (AVEFA) [8]; pre-emergence spray): 0%

SMILES: CCc1ccc(Oc2ccc(C(F)(F)F)c(C#N)c2)cc1C1=C(O)CC(C)(C)CC1=O [Example A-295]
- pest or weed control at 250 g/ha (Lolium perenne (LOLPE) [1]; glasshouse): 40%
- pest or weed control at 250 g/ha ([2]; glasshouse): 80%
- pest or weed control at 250 g/ha ([3]; glasshouse): 100%
- pest or weed control at 250 g/ha (Avena fatua (AVEFA) [4]; glasshouse): 60%
- pest or weed control at 250 g/ha (Lolium perenne (LOLPE) [5]; pre-emergence spray): 50%
- pest or weed control at 250 g/ha ([6]; pre-emergence spray): 50%
- pest or weed control at 250 g/ha ([7]; pre-emergence spray): 70%
- pest or weed control at 250 g/ha (Avena fatua (AVEFA) [8]; pre-emergence spray): 20%

SMILES: CCc1ccc(Oc2nccnc2Cl)cc1C1=C(O)C(C)(C)OC(C)(C)C1=O [Example A-103]
- pest or weed control at 250 g/ha (Lolium perenne (LOLPE) [1]; glasshouse): 20%
- pest or weed control at 250 g/ha ([2]; glasshouse): 10%
- pest or weed control at 250 g/ha ([3]; glasshouse): 40%
- pest or weed control at 250 g/ha (Avena fatua (AVEFA) [4]; glasshouse): 0%
- pest or weed control at 250 g/ha (Lolium perenne (LOLPE) [5]; pre-emergence spray): 40%
- pest or weed control at 250 g/ha ([6]; pre-emergence spray): 10%
- pest or weed control at 250 g/ha ([7]; pre-emergence spray): 30%
- pest or weed control at 250 g/ha (Avena fatua (AVEFA) [8]; pre-emergence spray): 0%
